Measurements reported in patent US11322228B2, “Structure based design of d-protein ligands” (Janssen Vaccines & Prevention B.V., priority 2015, dated 2022).
Where a SMILES comes first, the peptide text is derived from it. Bridges are numbered along the chain shown (N, C = ends). Where no end group is shown, it is not given here. [ ]: non-standard residue; d: D form. d2Nal = N[C@H](Cc1ccc2ccccc2c1)C(=O)O; dNle = CCCC[C@@H](N)C(=O)O

What was measured:
IL17A [1] = molecular target: T1, IL17A (Homo sapiens, UniProt Q16552); assay: ELISA competition assay against negative control antibody CAT2200 (non-overlapping epitope) on IL17A; conditions: antibody binding a non-overlapping epitope on IL17A
T1 sequence (Q16552 24-155): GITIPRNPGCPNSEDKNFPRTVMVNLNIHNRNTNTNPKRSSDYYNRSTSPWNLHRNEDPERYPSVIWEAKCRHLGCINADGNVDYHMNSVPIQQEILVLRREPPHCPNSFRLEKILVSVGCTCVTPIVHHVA
From the text: (§1) In order to assess the potential binding of the D-Proteins to IL17A at the binding site of CNT06785, the D-Proteins were screened in an ELISA competition assay against a known competitor of antibody CNT06785, Centyrin WPW-His. To show the specific binding to the epitope, negative control antibody CAT2200 was taken along that binds to a different, non-overlapping epitope on IL17A. […] Upper graphs show competition with centyrin WPW, lower graphs—with antibody CAT2200 binding to a non-overlapping epitope. Response is plotted as a function of logarithm of concentration.

IL17A [2] = molecular target: T1, IL17A; assay: ELISA competition assay against Centyrin WPW-His on IL17A; type: binding
From the text: as §1

Influenza hemagglutinin [3] = assay: ELISA competition with head binding antibody CR11054 (non-overlapping epitope); conditions: non-overlapping epitope on HA
Influenza hemagglutinin [4] = assay: ELISA assay for competition with designer protein HB80.4 (stem epitope); type: binding; conditions: for competition with HB80.4 (result in words): stem binding HB80.4, competition ELISA on HA

Molecule | competition with CAT2200 (result in words) (IL17A [1]) | competition with centyrin WPW (result in words) (IL17A [2]) | competition with CR11054 (result in words) (Influenza hemagglutinin [3]) | competition with HB80.4 (result in words) (Influenza hemagglutinin [4]) | pIC50, competition with HB80.4 (Influenza hemagglutinin [4]; competition ELISA on HA) | IC50 (Influenza hemagglutinin [4]; competition ELISA on HA, read-out: IC50 given in brackets after pIC50, competition with HB80.4 (converted))
CCCC[C@H]1NC(=O)[C@@H](CCCCN)NC(=O)[C@@H](CCSC)NC(=O)[C@@H](CC(C)C)NC(=O)[C@@H](Cc2c[nH]cn2)NC(=O)[C@@H](CCCCN)NC(=O)[C@H]2CSSC[C@H]3NC(=O)[C@@H]([C@H](C)O)NC(=O)[C@@H](CCCCN)NC(=O)[C@@H](CCCNC(=N)N)NC(=O)[C@@H](CSSC[C@@H](NC(=O)[C@@H](Cc4ccccc4)NC(=O)[C@@H](CC(C)C)NC(=O)[C@@H](CCCCN)NC(=O)[C@H]4CCCN4C(=O)[C@@H](Cc4ccccc4)NC(=O)[C@@H]([C@H](C)O)NC(=O)[C@@H](C)NC(=O)[C@@H](CCC(N)=O)NC(=O)[C@H](NC(=O)[C@@H](CO)NC(=O)[C@H](N)CCCNC(=N)N)CSSC[C@H](C(=O)O)NC(=O)[C@@H]([C@H](C)O)NC(=O)CNC3=O)C(=O)N[C@H]([C@H](C)O)C(=O)N[C@H](C)C(=O)N[C@H](Cc3ccccc3)C(=O)N[C@H](CC(C)C)C(=O)N2)NC(=O)[C@@H](Cc2ccc3ccccc3c2)NC(=O)[C@@H](CO)NC(=O)[C@@H](CC(C)C)NC(=O)[C@@H](CCCNC(=N)N)NC1=O [DP142137, H-rscqatfpklfctaflckhlmkxrls<crktcGtc-OH] (H-[dR][dS][dC][dQ][dA][dT][dF][dP][dK][dL][dF][dC][dT][dA][dF][dL][dC][dK][dH][dL][dM][dK][dNle][dR][dL][dS][d2Nal][dC][dR][dK][dT][dC]G[dT][dC]-OH; disulfide 3-35, 12-28, 17-32) | lack of activity | clear binding curve |  |  |  | 
H-rsciatepksfctaflckhlmkarlsycrktcGtc-OH (H-[dR][dS][dC][dI][dA][dT][dE][dP][dK][dS][dF][dC][dT][dA][dF][dL][dC][dK][dH][dL][dM][dK][dA][dR][dL][dS][dY][dC][dR][dK][dT][dC]G[dT][dC]-OH; cysteine pairing not given here) [DP141063] | lack of activity | lack of activity |  |  |  | 
H-rscidtipksrctafqckhsmkyrlsfcrktcGtc-OH [DP141050, reference compound] | lack of activity | lack of activity | lack of activity |  |  | 
H-rscqatepkyfctaflckhlmkarlsycrktcGtc-OH (H-[dR][dS][dC][dQ][dA][dT][dE][dP][dK][dY][dF][dC][dT][dA][dF][dL][dC][dK][dH][dL][dM][dK][dA][dR][dL][dS][dY][dC][dR][dK][dT][dC]G[dT][dC]-OH; cysteine pairing not given here) [DP141065] | lack of activity | lack of activity |  |  |  | 
racprilkkcrrdsdcpGecickGnGycG (RACPRILKKCRRDSDCPGECICKGNGYCG) [DP141753, wild-type scaffold 2LJS as D-protein, negative control, reference compound] |  |  |  | no competition until the highest concentration |  | 
rfcpsibkkcrrdsdcpG!cickGnGycG (RFCPSIXKKCRRDSDCPGXCICKGNGYCG; not fully specified (some residues); printed as rfcpsibkkcrrdsdcpG!cickGnGycG; cysteine pairing not given here) [DP142093, optimized HA hit, D-protein on scaffold 2LJS] |  |  | no competition | clear S-curve | 4.1 | 88 µM
